The numbers were not newly measured in patent publication US8586094B2, “Coated tablets” (Jagotec AG, priority 2000, dated 2013), which cites them from elsewhere.

Where two headings read alike, the source gives them in different places.

Regarding `CC(C)(Oc1ccc(C(=O)c2ccc(Cl)cc2)cc1)C(=O)O` [fenofibric acid], the “elimination / plasma half-life” value was “approximately twenty”. Where the note is “listed as Fenofibric acid”, the “elimination / plasma half-life” value is reported as “about 20 hours”.
